# Laboratory results taken from patent publication US6806273B1, “Compounds” (AstraZeneca AB, priority 1998, dated 2004).
row,SMILES,melting point [°C]
1,"CCCCCSc1nc(NC(CC)CO)c2sc(N)nc2n1 (racemic) [Example 6, (±)-2-[[2-Amino-5-(pentylthio)thiazolo[4,5-d]pyrimidin-7-yl]amino]-1-butanol]",151 to 154
2,"O=c1[nH]c(SCc2cccc(Oc3ccccc3)c2)nc2ncsc12 [Example 4, 5-[[(3-Phenoxyphenyl)methyl]thio]thiazolo[4,5-d]pyrimidin-7(4H)-one]",197 to 198
3,"Nc1nc2nc(SCc3cccc(Oc4ccccc4)c3)[nH]c(=O)c2s1 [Example 5, 2-Amino-5-[[(3-phenoxyphenyl)methyl]thio]thiazolo[4,5-d]pyrimidin-7(4H)-one]",266 to 269
4,"CCCCCSc1nc(NCCO)c2sc(N)nc2n1 [Example 7, 2-[[2-Amino-5-(pentylthio)thiazolo[4,5-d]pyrimidin-7-yl]amino]ethanol]",192 to 195
5,"CCCCCSc1nc2ncsc2c(=O)[nH]1 [Example 8, 5-(Pentylthio)thiazolo[4,5-d]pyrimidin-7(4H)-one]",208 to 209
6,"CCCCCSc1nc2nc(Br)sc2c(=O)[nH]1 [Example 11, 2-Bromo-5-(pentylthio)thiazolo[4,5-d]pyrimidin-7(4H)-one]",189 to 191
7,"CC[C@H](CO)Nc1nc(SCc2cccc(Oc3ccccc3)c2)nc2nc(N)sc12 [Example 111, (2R)-2-[[2-Amino-5-[[(3-phenoxyphenyl)methyl]thio]thiazolo[4,5-d]pyrimidin-7-yl]amino]-1-butanol]",108 to 111
8,"CC[C@@H](CO)Nc1nc(SCc2cccc(Oc3ccccc3)c2)nc2nc(N)sc12 [Example 112, (2S)-2-[[2-Amino-5-[[(3-phenoxyphenyl)methyl]thio]thiazolo[4,5-d]pyrimidin-7-yl]amino]-1-butanol]",111 to 114
9,"Nc1nc2nc(SCc3cccc(Oc4ccccc4)c3)nc(NC(CO)CO)c2s1 [Example 114, 2-[[2-Amino-5-[[(3-phenoxyphenyl)methyl]thio]thiazolo[4,5-d]pyrimidin-7-yl]amino]-1,3-propanediol]",220 to 222
10,"CC(C)(CO)Nc1nc(SCc2cccc(Oc3ccccc3)c2)nc2nc(N)sc12 [Example 115, 2-[[2-Amino-5-[[(3-phenoxyphenyl)methyl]thio]thiazolo[4,5-d]pyrimidin-7-yl]amino]-2-methyl-1-propanol]",126 to 130
